# From patent US20230110378A1, “MONOBACTAM COMPOUND AND USE THEREOF” (EVOPOINT BIOSCIENCES CO., LTD., priority 2019, published 2023)
# Key:
# [1] = tested on: Pseudomonas aeruginosa HDBPA 5679; assay: Minimum inhibitory concentration (broth microdilution, CLSI); assay type: cell-based; conditions: HDBPA5679
# Description: (§1) 103 bacterial strains used for the minimum inhibitory concentration test were frozen in a −80° C. ULT freezer and thawed 2 days before use. A small amount of frozen microorganism bacteria were scraped using a sterile inoculating loop, streaked onto a suitable solid culture dish for inoculation, and then cultured for about 20 h at 35 t 2° C. in a normal incubator. • Proteus mirabilis HDBPM 40: MA, normal atmospheric environment • The remaining 102 strains of bacteria: TSA, normal atmospheric environment
# (§2) 5-10 colonies with similar morphology were picked from the culture dish using a sterile inoculating loop and then re-streaked onto a corresponding solid culture dish. Then the dish was incubated in a normal incubator at 35 t 2° C. for about 20 h.
# (§3) 5-10 single microbial colonies were picked from the solid culture dish, resuspended in 500 μL of sterile normal saline (0.9% NaCl), and adjusted to an OD600 of about 0.15 with a spectrophotometer.
# (§4) The bacteria were then diluted 300-fold with 1.02×CAMHB to an inoculation concentration of 2×10^5 CFU/mL.
# (§5) • There were a total of 3 assay plate patterns, one of which was used for each assay. • 8 rows of the assay plate (rows A-H) were for 8 test compounds, respectively. The highest test concentration of the compounds was 16, 32 or 64 μg/mL, and each compound was diluted 2-fold. • Growth control (GC): a medium containing microbial inoculum (1.02×CAMHB) and dimethylsulfoxide (DMSO) but no compound.
# (§6) The test and reference compounds were dissolved in DMSO or H2O to prepare 6.4 mg/mL stock solutions. The stock solutions were diluted to prepare standby solutions with certain concentrations, and the volumes of the standby solutions were determined according to the experimental design. Corresponding volumes of the standby solutions were transferred to the starting wells of a dilution plate (A1-H1), and half the starting-well volume of DMSO to the other wells. Each compound was diluted 2-fold sequentially from column 1 to column 11 (e.g., transferring 30 μL of DMSO to columns 2-12 first, then pipetting 30 μL of the compounds from column 1 to column 2 and mixing them well, then pipetting 30 μL of the compounds from column 2 to column 3 and mixing them well, then pipetting 30 μL of the compounds from column 3 to column 4 and mixing them well, and so on to column 11).
# (§7) 1 or 2 μL of the compounds and DMSO were transferred from the compound plate to corresponding wells of the assay plates.
# (§8) 98 μL of corresponding bacterial inocula were added to the assay plates.
# (§9) After addition, the assay plates were covered with sterile covers. The mixtures in the assay plates were centrifuged in a centrifuge at 800 rpm for 30 s, mixed well on a microplate shaker at 400 rpm for 1 min, and incubated in a normal incubator at 35 t 2° C. for 20-24 h.
# (§10) The assay plates were placed on a plate reading device, and the speculum was adjusted to observe and record the growth condition of bacteria in each well. In the mean time, each assay plate was photographed with QCount system.
# (§11) The minimum inhibitory concentration of each compound was recorded by reference to guidelines from the Clinical and Laboratory Standards Institute.
# (§12) The minimum inhibitory concentrations of the compounds against experimental strains were tested in this study by reference to the medium microdilution method as indicated by the Clinical and Laboratory Standards Institute. Compounds were diluted two-fold in 96-well plates from the highest detection concentration of 16, 32 or 64 μg/mL. The bacterial inocula in the assay plates were thawed from corresponding medium plates and diluted in 1.02×CAMHB, while growth controls (GC wells) were set up in the assay plates. The minimum inhibitory concentration of each compound against different bacteria was observed and recorded after the assay plates were incubated in a normal incubator at 35 t 2° C. for about 20 h. The minimum inhibitory concentration values for the different compounds are listed in the list below.
# [2] = tested on: Klebsiella pneumoniae HDBKP 30006; assay: as above; assay type: cell-based; conditions: HDBKP30006
# Description: as §1, §2, §3, §4, §5, §6, §7, §8, §9, §10, §11, §12
# [3] = tested on: Klebsiella pneumoniae HDBKP 9249; assay: as above; assay type: cell-based; conditions: HDBKP9249
# Description: as §1, §2, §3, §4, §5, §6, §7, §8, §9, §10, §11, §12
# [4] = tested on: metallo-β-lactamase-expressing Acinetobacter baumannii strain ABA-0003YK; assay: as above; assay type: cell-based; conditions: read-out: MIC A. baumannii ABA-0003YK
# Description: as §1, §2, §3, §4, §5, §6, §7, §8, §9, §10, §11, §12
# [5] = tested on: Proteus mirabilis HDBPM 40; assay: as above; assay type: cell-based; conditions: HDBPM40
# Description: as §1, §2, §3, §4, §5, §6, §7, §8, §9, §10, §11, §12
# [6] = tested on: Escherichia coli HDBEC 30008; assay: as above; assay type: cell-based; conditions: HDBEC30008
# Description: as §1, §2, §3, §4, §5, §6, §7, §8, §9, §10, §11, §12
# [7] = tested on: Enterobacter cloacae HDBECL 30030; assay: as above; assay type: cell-based; conditions: HDBECL30030
# Description: as §1, §2, §3, §4, §5, §6, §7, §8, §9, §10, §11, §12
# [8] = tested on: Klebsiella pneumoniae HDBKP 9153; assay: as above; assay type: cell-based; conditions: HDBKP9153
# Description: as §1, §2, §3, §4, §5, §6, §7, §8, §9, §10, §11, §12
# [9] = tested on: Escherichia coli HDBEC 30016; assay: as above; assay type: cell-based; conditions: HDBEC30016
# Description: as §1, §2, §3, §4, §5, §6, §7, §8, §9, §10, §11, §12
# [10] = tested on: Escherichia coli HDBEC 30048; assay: as above; assay type: cell-based; conditions: HDBEC30048
# Description: as §1, §2, §3, §4, §5, §6, §7, §8, §9, §10, §11, §12
# [11] = Pharmacokinetic evaluation of compounds in mice (tail vein injection); assay type: in vivo, Male CD-1 (ICR) mice; conditions: CD-1 (ICR), mouse, male CD-1 mice, intravenous injection, dose 10 mg/kg, plasma; for half-life: read-out: T½ (converted); for Vd: read-out: Vss
# Description: Male CD-1 (ICR) mice were purchased and then acclimatized in this laboratory for at least 3 days. […] Blood samples were collected from the saphenous vein at 0.0833 h, 0.25 h, 0.5 h, 1 h, 2 h, 4 h, 8 h and 24 h following the tail vein injection administration. The volume of blood collection at each time point of the blood collection was about 30 μL. The blood samples were placed in centrifuge tubes containing anticoagulant EDTA-K2 and centrifuged at 3,200 g at 4° C. for 10 min, and then the upper plasma samples were collected and preserved in a freezer at −70±10° C. for later tests.
# 1) To 1.5 mL centrifuge tubes were added a 6 μL aliquot of an unknown sample, a standard curve, a quality control, a dilution quality control, single blank and double blank samples.
# 2) Each sample (except for the double blank sample) was treated with 120 μL of IS1-containing precipitant (the double blank sample was treated with 120 μL of pure MeOH for precipitation), and the mixtures were well mixed (for at least 15 s) using a vortexer and centrifuged at 12,000 g at 4° C. for 15 min.
# 3) 60 μL of the supernatants were transferred to a 96-well plate and centrifuged at 4° C. at 3220 g for 5 min, and 6 p L of the supernatants were injected for LC-MS/MS quantitative analysis.
# 1) The 1 h-plasma samples from the 3 mice were diluted 10-fold: 2 p L of the samples were added to 18 p L of blank matrix.
# 2) The 0.0833 h to 0.5 h-plasma samples from the 3 mice were diluted 100-fold: 18 μL of blank matrix was added to 2 p L of the samples to obtain 10-fold diluted samples. 2 μL of the 10-fold diluted samples were added to 18 p L of blank matrix to obtain 100-fold diluted analysis samples.
# LC-MS/MS analysis conditions: chromatography column: ACQUITY UPLC HSS T3 (2.1×50 mm, 1.8 μm); column temperature: 50° C.; mobile phase A: a 0.1% aqueous solution of formic acid; mobile phase B: a 0.1% solution of formic acid in acetonitrile; flowrate: 0.65 mL/min. Internal standard: verapamil (100 ng/mL)
# The concentration of the compounds in plasma was measured by LC-MS/MS (LC-MS/MS-AK_Q-Trap 6500). The pharmacokinetic software WinNonlin [version: Phoenix™ WinNonlin®6.3, manufacturer: Pharsight Corporation] was used to calculate pharmacokinetic parameters (V-Noncompartmental model 201).
MIC [1],MIC [2],MIC [3],MIC [5],MIC [6],MIC [7],MIC [8],MIC [9],MIC [10],AUC [11],clearance [11],half-life [11],Vd [11],Compound,MIC [4]
< 4 µg/mL,< 4 µg/mL,4 to 8 µg/mL,< 4 µg/mL,< 4 µg/mL,< 4 µg/mL,< 4 µg/mL,< 4 µg/mL,< 4 µg/mL,8530 ng·h/mL,19.5 mL/min/kg,85.8 min,0.57 L/kg,CC(C)(O/N=C(\C(=O)N[C@@H]1C(=O)N(S(=O)(=O)O)[C@@H]1CNC(=O)c1cc([C@@H]2CCN(CCNC(=O)c3ccc(O)c(O)c3Cl)C2)no1)c1csc(N)n1)C(=O)O [Compound I-35],–
< 4 µg/mL,8 to 16 µg/mL,8 to 16 µg/mL,< 4 µg/mL,< 4 µg/mL,< 4 µg/mL,< 4 µg/mL,< 4 µg/mL,< 4 µg/mL,–,–,–,–,CC(C)(O/N=C(\C(=O)N[C@@H]1C(=O)N(S(=O)(=O)O)[C@@H]1CNC(=O)c1cnc([C@@H]2CC[N+](C)(C[C@H](N)CNC(=O)c3ccc(O)c(O)c3Cl)C2)s1)c1csc(N)n1)C(=O)O (stereo partly shown) [Compound I-38],–
< 4 µg/mL,8 to 16 µg/mL,8 to 16 µg/mL,< 4 µg/mL,< 4 µg/mL,< 4 µg/mL,< 4 µg/mL,> 16 µg/mL,< 4 µg/mL,–,–,–,–,CC(C)(O/N=C(\C(=O)N[C@@H]1C(=O)N(S(=O)(=O)O)[C@@H]1CNC(=O)c1cc([C@@H]2CCN(CCNC(=O)c3cc(=O)c(O)c[nH]3)C2)no1)c1csc(N)n1)C(=O)O [Compound I-39],–
< 4 µg/mL,8 to 16 µg/mL,8 to 16 µg/mL,< 4 µg/mL,< 4 µg/mL,< 4 µg/mL,< 4 µg/mL,< 4 µg/mL,< 4 µg/mL,–,–,–,–,CC(C)(O/N=C(\C(=O)N[C@@H]1C(=O)N(S(=O)(=O)O)[C@@H]1CNC(=O)c1cc([C@@H]2CCN(CCNC(=O)c3cc(=O)c(O)cn3O)C2)no1)c1csc(N)n1)C(=O)O [Compound I-40],–
< 4 µg/mL,< 4 µg/mL,4 to 8 µg/mL,< 4 µg/mL,< 4 µg/mL,< 4 µg/mL,< 4 µg/mL,< 4 µg/mL,< 4 µg/mL,–,–,–,–,CC(C)(O/N=C(\C(=O)N[C@@H]1C(=O)N(S(=O)(=O)O)[C@@H]1CNC(=O)c1cnc([C@@H]2CCN(CCNC(=O)c3ccc(O)c(O)c3Cl)C2)s1)c1csc(N)n1)C(=O)O [Compound I-41],–
< 4 µg/mL,< 4 µg/mL,8 to 16 µg/mL,< 4 µg/mL,< 4 µg/mL,< 4 µg/mL,< 4 µg/mL,< 4 µg/mL,< 4 µg/mL,–,–,–,–,CC(C)(O/N=C(\C(=O)N[C@@H]1C(=O)N(S(=O)(=O)O)[C@@H]1CNC(=O)c1cnc(C2=CC(CCCNC(=O)c3ccc(O)c(O)c3Cl)N=C2)s1)c1csc(N)n1)C(=O)O (stereo partly shown) [Compound I-42],–
< 4 µg/mL,8 to 16 µg/mL,8 to 16 µg/mL,< 4 µg/mL,< 4 µg/mL,< 4 µg/mL,< 4 µg/mL,< 4 µg/mL,< 4 µg/mL,9660 ng·h/mL,17.3 mL/min/kg,35.4 min,0.24 L/kg,Cc1c(O)c(=O)cc(C(=O)N2CC[C@@H](c3cc(C(=O)NC[C@@H]4[C@H](NC(=O)/C(=N\OC(C)(C)C(=O)O)c5csc(N)n5)C(=O)N4S(=O)(=O)O)on3)C2)n1O [Compound I-43],–
< 4 µg/mL,8 to 16 µg/mL,8 to 16 µg/mL,< 4 µg/mL,< 4 µg/mL,< 4 µg/mL,< 4 µg/mL,4 to 8 µg/mL,< 4 µg/mL,17300 ng·h/mL,9.61 mL/min/kg,37.8 min,0.19 L/kg,Cc1c(C(=O)N2CC[C@@H](c3cc(C(=O)NC[C@@H]4[C@H](NC(=O)/C(=N\OC(C)(C)C(=O)O)c5csc(N)n5)C(=O)N4S(=O)(=O)O)on3)C2)n(O)c(C)c(O)c1=O [Compound I-44],–
< 4 µg/mL,8 to 16 µg/mL,8 to 16 µg/mL,< 4 µg/mL,< 4 µg/mL,< 4 µg/mL,< 4 µg/mL,8 to 16 µg/mL,< 4 µg/mL,–,–,–,–,Cc1c(C(=O)NCCN2CC[C@@H](c3cc(C(=O)NC[C@@H]4[C@H](NC(=O)/C(=N\OC(C)(C)C(=O)O)c5csc(N)n5)C(=O)N4S(=O)(=O)O)on3)C2)n(O)c(C)c(O)c1=O [Compound I-45],–
< 4 µg/mL,8 to 16 µg/mL,8 to 16 µg/mL,< 4 µg/mL,< 4 µg/mL,< 4 µg/mL,< 4 µg/mL,< 4 µg/mL,< 4 µg/mL,–,–,–,–,Cc1c(O)c(=O)cc(C(=O)NCCCn2cc(-c3ncc(C(=O)NC[C@@H]4[C@H](NC(=O)/C(=N\OC(C)(C)C(=O)O)c5csc(N)n5)C(=O)N4S(=O)(=O)O)s3)cn2)n1O [Compound I-46],–

Compound,MIC [1],MIC [2],MIC [3],MIC [5],MIC [6],MIC [7],MIC [8],MIC [9],MIC [10],AUC [11],clearance [11],half-life [11],Vd [11],MIC [4]
"C[C@H]1[C@H](NC(=O)/C(=N\OC(C)(C)C(=O)O)c2csc(N)n2)C(=O)N1S(=O)(=O)O [Aztreonam, reference compound]",> 16 µg/mL,> 16 µg/mL,> 16 µg/mL,8 to 16 µg/mL,8 to 16 µg/mL,> 16 µg/mL,> 16 µg/mL,> 16 µg/mL,> 16 µg/mL,–,–,–,–,> 16 µg/mL
